In paper PMC6628648, “Enabling microbial syringol conversion through structure-guided protein engineering” (Proceedings of the National Academy of Sciences of the …, 2019):

Target: GcoA-F169A (Amycolatopsis sp., UniProt P0DPQ7, F169A)
Test: End-point stoichiometry and coupling assay (formaldehyde by tryptophan assay, aromatics by HPLC, NADH by UV/vis)
Type: biochemical, Amycolatopsis sp. ATCC 39116
Design: GST (N, cleaved yes); made in house; host or cells: E. coli Rosetta 2 (DE3)
Conditions: for Coupling efficiency: F169A, molar ratio formaldehyde produced per NADH consumed, 200 µM NADH, 200 µM aromatic substrate; for % Formaldehyde produced: referenced to NADH consumed; for formaldehyde produced at reaction completion: 100 μM substrate
Description: Fig. 1. Quantitative analyses of substrate consumption and product generation indicate nearly complete coupling of NADH/O2 consumption to substrate O-demethylation for guaiacol and progressively more uncoupling for syringol and 3MC. […] Reactants and products were quantified when the UV/vis spectrum ceased changing and the reaction was deemed complete. The total NADH consumed is compared with the amounts of formaldehyde and demethylated aromatic compound produced. Pyrogallol, the O-demethylated product of 3MC, is unstable in air under the conditions used in the assay and was not detected. Error bars represent ±1 SD from three or more independent measurements. P values comparing NADH consumption and formaldehyde production were 0.035 for guaiacol, 0.20 for 100 µM syringol, 0.41 for 200 µM syringol, and 0.0035 for 3MC. For NADH consumption and aromatic product production, these P values were 0.011 for guaiacol, 0.00031 for 100 µM syringol, and 0.0084 for 200 µM syringol.
The [formaldehyde] produced on reaction with GcoA-F169A and substrates was determined using a colorimetric assay with tryptophan ([28], [42]); details are provided in SI Appendix.
HPLC was used to verify the O-demethylated product of GcoA-F169A GcoA/GcoB with guaiacol, syringol, or 3MC. In addition, discontinuous HPLC was used to determine the specific activity of aromatic product disappearance. Details are provided in SI Appendix. […]
vi = Vmax[S]/(KM + [S]) (4) […]
Formaldehyde determination. A colorimetric assay using tryptophan can be used to quantify the amount of formaldehyde produced in F169 GcoA/B reactions with guaiacol, syringol, or 3MC. 0.2 µM each of F169 GcoA mutants and GcoB were dissolved in air-saturated buffer (25 mM HEPES, 50 mM NaCl) in a cuvette at pH 7.5, 25 °C. 100 µg/mL catalase was added to each reaction to capture any H2O2 formed during the uncoupled reaction. 200 μM NADH was added and the background rate recorded. 100 (guaiacol, syringol, or 3MC) or 200 (syringol) μM of substrate was then added and the reaction monitored until there was no more change, due to either substrate, NADH or O2 depletion, whichever occurred first. 200 µL of the reaction was then quenched by adding 200 µL of a 0.1% tryptophan solution in 50% ethanol and 200 µL of 90% sulfuric acid. Upon thorough mixing, 40 µL of 1% FeCl3 was added. The solution was then incubated in a heating block for 90 min at 70 °C. After cooling, the absorbance was read at 575 nm and the [formaldehyde] calculated by using ε575 nm = 4.2 mM-1 cm-1, obtained with formaldehyde as a standard (1). A negative control included everything but the substrate and was used as a baseline.
HPLC for product identification and specific activity measurement. Analyte analysis of the above end-point reactions (100 μM guaiacol, syringol, or 3MC, or 200 μM syringol) was performed on an Agilent 1100 LC system (Agilent Technologies) equipped with a G1315B diode array detector (DAD). Each sample and standard was injected at a volume of 10 μL onto a Symmetry C18 column 5 μm, 4.6 x 150 mm column (Waters). The column temperature was maintained at 30 °C and the buffers used to separate the analytes of interest was 0.01% TFA in water (A)/ acetonitrile (B). The separation was carried out using a gradient program of: (A) = 99% and (B) = 1% at time t = 0 min; (A) = 99% and (B) = 1% at time t = 2 min, (A) = 50% and (B) = 50% at t = 8 min; (A) = 1% and (B) = 99% at t = 8.01 min; (A) = 99% and (B) = 1% at t = 10.01 min; (A) = 99% and (B) = 1% at t = 11 min. The flow rate was held constant at 1.5 mL min-1, resulting in a run time of 11 minutes. DAD wavelengths of 210 and 325 nm were used for analysis of the analytes of interest. Standard curves were generated using 0-500 μM of guaiacol, syringol, 3MC, catechol, and pyrogallol. Integrated intensities vs [standards] were plotted and the resulting standard curves used to quantify the reactants and products. […]

[1] = GcoA-F169A, 100 µM substrate + 100 µM NADH
[2] = GcoA-F169A, 200 μM NADH, 210 μM O2
[3] = GcoA-F169A, NADH and syringol ∼200 μM each, 210 μM O2

GcoA-F169A, sequence (P0DPQ7 whole entry F169A): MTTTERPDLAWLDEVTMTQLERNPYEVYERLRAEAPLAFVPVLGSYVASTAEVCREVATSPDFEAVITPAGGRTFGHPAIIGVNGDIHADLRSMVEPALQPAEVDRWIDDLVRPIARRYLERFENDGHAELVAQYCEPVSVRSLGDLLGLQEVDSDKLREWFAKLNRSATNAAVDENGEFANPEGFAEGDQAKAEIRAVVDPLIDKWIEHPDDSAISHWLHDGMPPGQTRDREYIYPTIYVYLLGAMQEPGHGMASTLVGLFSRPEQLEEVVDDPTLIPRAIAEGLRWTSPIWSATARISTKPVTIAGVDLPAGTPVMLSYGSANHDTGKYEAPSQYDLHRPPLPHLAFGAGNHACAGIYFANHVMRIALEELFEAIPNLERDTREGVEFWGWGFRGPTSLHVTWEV

COc1cccc(O)c1O [3MC, 3-methoxycatechol]
Coupling efficiency: 64 ± 10% | % Formaldehyde produced [1]: 52 ± 7% | formaldehyde produced at reaction completion [2]: ~100 µM

COc1ccccc1O [guaiacol, 2-methoxyphenol]
Coupling efficiency: 103 ± 7% | % Formaldehyde produced [1]: 100 ± 10%

COc1cccc(OC)c1O [syringol, 2,6-dimethoxyphenol]
Coupling efficiency: 104 ± 6% | % Formaldehyde produced [1]: 125 ± 6% | % Formaldehyde produced (GcoA-F169A, 100 µM substrate + 200 µM NADH): 91 ± 8% | formaldehyde produced at reaction completion [2]: 170 ± 10 µM | singly demethylated intermediate 3MC observed at the end of the reaction (GcoA-F169A, 100 μM syringol, 200 μM NADH, 210 μM O2): 50 ± 4 µM | 3MC generated [3]: 120 ± 2 µM | formaldehyde generated [3]: 200 ± 3 µM | syringol consumed [3]: 150 ± 6 µM
